From patent publication US20230322767A1, “ARYL SUBSTITUTED PYRROLO-PYRIDINONES AND THERAPEUTIC USES THEREOF” (Bayer Aktiengesellschaft, priority 2020, published 2023)

Key:
CSNK1D = CSNK1D (Homo sapiens (Human), UniProt P48730); test: CSNK1D Assay (ADP-Glo, 1 μM ATP); format: biochemical; settings: median, read-out: CSNK1D IC50 [mol/l] (median)
Procedure: CSNK1D-inhibitory activity of compounds of the present invention in presence of 1 μM adenosine-tri-phosphate (ATP) was quantified employing the CSNK1 D assay as described in the following paragraphs. In essence, the enzyme activity is measured by quantification of the adenosine-di-phosphate (ADP), which is generated as a co-product of the enzyme reaction, via the “ADP-Glo™ Kinase Assay” kit from the company Promega. This detection system works as follows: In a first step the ATP not consumed in the kinase reaction is quantitatively converted to cAMP employing an adenylate cyclase (“ADP-Glo-reagent”), then the adenylate cyclase is stopped and the ADP generated in the kinase reaction converted to ATP which generates in a luciferase-based reaction a glow-luminescence signal (“Kinase Detection Reagent”).
As substrate for the kinase reaction the biotinylated peptide Btn-Ahx-[…] (C-terminus in amide form) was used which can be purchased e.g. from the company Biosyntan (Berlin-Buch, Germany).
For the assay 50 nl of a 100 fold concentrated solution of the test compound in DMSO was pipetted into a white 1536-well microtiter plate (Greiner Bio-One, Frickenhausen, Germany), 2 μL of a solution of CSNK1D in aqueous assay buffer [50 mM HEPES pH 7.5, 10% (v/v) glycerol, 10 mM MgCl2, 50 mM NaCl, 1 mM dithiothreitol, 0.01% (w/v) bovine serum albumin, 0.01% (v/v) Triton X-100] were added and the mixture was incubated for 15 min at 22° C. to allow pre-binding of the test compounds to the enzyme before the start of the kinase reaction. […] The concentration of CSNK1D was adjusted depending of the activity of the enzyme lot and was chosen appropriate to have the assay in the linear range, a typical concentration is about 0.5 ng/μL. The reaction was stopped by the addition of 2.5 μL of “ADP-Glo-reagent” (1:1.5 fold diluted with water) and the resulting mixture was incubated at 22° C. for 1 h to convert the ATP not consumed in the kinase reaction completely […]. Subsequently 2.5 μL of the “kinase detection reagent” (1.2 fold more concentrated than recommended by the producer) were added, the resulting mixture was incubated at 22° C. for 1 h and then the luminescence measured with a suitable measurement instrument (e.g. Viewlux™ from Perkin-Elmer). The amount of emitted light was taken as a measure for the amount of ADP generated and thereby for the activity of the CSNK1D.

CSNK1A1 = CSNK1A1 (Homo sapiens (Human), UniProt P48729); test: CSNK1A1 Assay 2 (ADP-Glo, 1 μM ATP); format: biochemical; settings: median, read-out: CSNK1A1 Assay 2 IC50 [mol/l] (median)
Sequence of CSNK1A1 (P48729 whole entry): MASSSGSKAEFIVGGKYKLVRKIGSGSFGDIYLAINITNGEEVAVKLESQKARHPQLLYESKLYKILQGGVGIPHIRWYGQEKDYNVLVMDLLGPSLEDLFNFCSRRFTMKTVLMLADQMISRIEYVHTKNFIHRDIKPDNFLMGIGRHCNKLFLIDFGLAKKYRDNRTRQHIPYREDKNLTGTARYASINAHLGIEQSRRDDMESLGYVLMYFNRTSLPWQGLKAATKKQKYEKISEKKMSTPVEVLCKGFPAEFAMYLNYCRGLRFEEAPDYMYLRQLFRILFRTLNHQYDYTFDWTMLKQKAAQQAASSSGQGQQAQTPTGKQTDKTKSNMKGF
Method in brief: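 Enzyme (~0.0375 ng/μL) preincubated 15 min at 22° C with compound in HEPES pH 7.5 buffer, then reacted with 1 μM ATP and biotin-Ahx-KRRRAL-pS-VASLPGL peptide. ADP product measured by ADP-Glo luminescence after 1 h ATP depletion and 1 h detection at 22° C.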

Sequence of CSNK1D (P48730 whole entry): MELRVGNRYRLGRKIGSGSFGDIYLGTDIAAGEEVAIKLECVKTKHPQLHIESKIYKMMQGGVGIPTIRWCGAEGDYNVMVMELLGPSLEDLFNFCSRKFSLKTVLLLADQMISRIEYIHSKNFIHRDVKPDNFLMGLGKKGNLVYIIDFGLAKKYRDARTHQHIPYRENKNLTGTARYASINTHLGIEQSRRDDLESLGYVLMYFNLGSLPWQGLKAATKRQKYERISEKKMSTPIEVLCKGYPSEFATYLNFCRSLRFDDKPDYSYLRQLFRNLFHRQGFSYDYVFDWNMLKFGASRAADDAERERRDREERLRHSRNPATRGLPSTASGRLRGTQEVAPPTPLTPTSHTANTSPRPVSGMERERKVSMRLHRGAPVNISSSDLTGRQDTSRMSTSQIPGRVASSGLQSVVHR

SMILES	IC50 (CSNK1D) [nM]	IC50 (CSNK1A1) [nM]
CC(C(=O)Nc1cc(-c2[nH]c3c(CC(F)(F)F)cn(C)c(=O)c3c2-c2ccc(F)cc2)ccn1)c1ccc(F)cc1 (single isomer, unassigned; (+)) [Example 24, (+)-2-(4-fluorophenyl)-N-{4-[3-(4-fluorophenyl)-5-methyl-4-oxo-7-(2,2,2-trifluoroethyl)-4,5-dihydro-1H-pyrrolo[3,2-c]pyridin-2-yl]pyridin-2-yl}propanamide]	4	4.5
Cc1cn(C)c(=O)c2c(-c3ccc(F)cc3)c(-c3ccnc(NC(=O)C(C)c4ccc(F)cc4)c3)[nH]c12 (single isomer, unassigned; (+)) [Example 32, (+)-2-(4-fluorophenyl)-N-{4-[3-(4-fluorophenyl)-5,7-dimethyl-4-oxo-4,5-dihydro-1H-pyrrolo[3,2-c]pyridin-2-yl]pyridin-2-yl}propanamide]	3.6	4.4
Cc1cn(C)c(=O)c2c(-c3ccc(F)cc3)c(-c3ccnc(NC(=O)C(CC(F)F)c4ccc(F)cc4)c3)[nH]c12 (single isomer, unassigned; (+)) [Example 36, (+)-4,4-difluoro-2-(4-fluorophenyl)-N-{4-[3-(4-fluorophenyl)-5,7-dimethyl-4-oxo-4,5-dihydro-1H-pyrrolo[3,2-c]pyridin-2-yl]pyridin-2-yl}butanamide]	3.5	3.5
CN1C(=O)c2c([nH]c(-c3ccnc(NC(=O)C(CC(F)F)c4ccc(F)cc4)c3)c2-c2ccccc2)CC12CCC2 (single isomer, unassigned; (+)) [Example 51, (+)-4,4-difluoro-2-(4-fluorophenyl)-N-[4-(5′-methyl-4′-oxo-3′-phenyl-1′,4′,5′,7′-tetrahydrospiro-[cyclobutane-1,6′-pyrrolo[3,2-c]pyridin]-2′-yl)pyridin-2-yl]butanamide]	2.4	1.8
CC(C(=O)Nc1cc(-c2[nH]c3c(c2-c2ccccc2)C(=O)N(C)C2(CCC2)C3)ccn1)c1ccc(F)cc1 (single isomer, unassigned; (+)) [Example 54, (+)-2-(4-fluorophenyl)-N-[4-(5′-methyl-4′-oxo-3′-phenyl-1′,4′,5′,7′-tetrahydrospiro[cyclobutane-1,6′-pyrrolo[3,2-c]pyridin]-2′-yl)pyridin-2-yl]propanamide]	3.6	1.6
CC(C(=O)Nc1cc(-c2[nH]c3c(CC(F)(F)F)cn(C)c(=O)c3c2-c2ccccc2)ccn1)c1ccc(F)cc1 (single isomer, unassigned; (-)) [Example 16, (−)-2-(4-fluorophenyl)-N-{4-[5-methyl-4-oxo-3-phenyl-7-(2,2,2-trifluoroethyl)-4,5-dihydro-1H-pyrrolo[3,2-c]pyridin-2-yl]pyridin-2-yl}propanamide]	4.4	7.7
Cn1cc(CC(F)(F)F)c2[nH]c(-c3ccnc(NC(=O)C(CC(F)F)c4ccc(F)cc4)c3)c(-c3ccccc3)c2c1=O (single isomer, unassigned; (-)) [Example 19, (−)-4,4-difluoro-2-(4-fluorophenyl)-N-{4-[5-methyl-4-oxo-3-phenyl-7-(2,2,2-trifluoroethyl)-4,5-dihydro-1H-pyrrolo[3,2-c]pyridin-2-yl]pyridin-2-yl}butanamide]	14	22
CC(C(=O)Nc1cc(-c2[nH]c3c(CC(F)(F)F)cn(C)c(=O)c3c2-c2ccc(F)cc2)ccn1)c1ccc(F)cc1 (single isomer, unassigned; (-)) [Example 23, (−)-2-(4-fluorophenyl)-N-{4-[3-(4-fluorophenyl)-5-methyl-4-oxo-7-(2,2,2-trifluoroethyl)-4,5-dihydro-1H-pyrrolo[3,2-c]pyridin-2-yl]pyridin-2-yl}propanamide]	37	85
Cc1cn(C)c(=O)c2c(-c3ccc(F)cc3)c(-c3ccnc(NC(=O)C(C)c4ccc(F)cc4)c3)[nH]c12 (single isomer, unassigned; (-)) [Example 31, (−)-2-(4-fluorophenyl)-N-{4-[3-(4-fluorophenyl)-5,7-dimethyl-4-oxo-4,5-dihydro-1H-pyrrolo[3,2-c]pyridin-2-yl]pyridin-2-yl}propanamide]	14	53
Cc1cn(C)c(=O)c2c(-c3ccc(F)cc3)c(-c3ccnc(NC(=O)C(CC(F)F)c4ccc(F)cc4)c3)[nH]c12 (single isomer, unassigned; (-)) [Example 35, (−)-4,4-difluoro-2-(4-fluorophenyl)-N-{4-[3-(4-fluorophenyl)-5,7-dimethyl-4-oxo-4,5-dihydro-1H-pyrrolo[3,2-c]pyridin-2-yl]pyridin-2-yl}butanamide]	22	66
CN1C(=O)c2c([nH]c(-c3ccnc(NC(=O)C(CC(F)F)c4ccc(F)cc4)c3)c2-c2ccccc2)CC12CCC2 (single isomer, unassigned; (-)) [Example 50, (−)-4,4-difluoro-2-(4-fluorophenyl)-N-[4-(5′-methyl-4′-oxo-3′-phenyl-1′,4′,5′,7′-tetrahydrospiro-[cyclobutane-1,6′-pyrrolo[3,2-c]pyridin]-2′-yl)pyridin-2-yl]butanamide]	9.8	12
CC(C(=O)Nc1cc(-c2[nH]c3c(c2-c2ccccc2)C(=O)N(C)C2(CCC2)C3)ccn1)c1ccc(F)cc1 (single isomer, unassigned; (-)) [Example 53, (−)-2-(4-fluorophenyl)-N-[4-(5′-methyl-4′-oxo-3′-phenyl-1′,4′,5′,7′-tetrahydrospiro[cyclobutane-1,6′-pyrrolo[3,2-c]pyridin]-2′-yl)pyridin-2-yl]propanamide]	16	21
CN1CCc2[nH]c(-c3ccnc(NC(=O)Cc4ccc(F)cc4)c3)c(-c3cccnc3)c2C1=O [Example 12, 2-(4-fluorophenyl)-N-{4-[5-methyl-4-oxo-3-(pyridin-3-yl)-4,5,6,7-tetrahydro-1H-pyrrolo[3,2-c]pyridin-2-yl]pyridin-2-yl}acetamide]	13	10
CC(C(=O)Nc1cc(-c2[nH]c3c(c2-c2ccccc2)C(=O)N(C)CC3CC(F)(F)F)ccn1)c1ccc(F)cc1 (stereo not drawn) [Example 13, 2-(4-fluorophenyl)-N-{4-[5-methyl-4-oxo-3-phenyl-7-(2,2,2-trifluoroethyl)-4,5,6,7-tetrahydro-1H-pyrrolo[3,2-c]pyridin-2-yl]pyridin-2-yl}propanamide]	3.9	3.5
CN1CC(CC(F)(F)F)c2[nH]c(-c3ccnc(NC(=O)C(CC(F)F)c4ccc(F)cc4)c3)c(-c3ccccc3)c2C1=O (stereo not drawn) [Example 17, 4,4-difluoro-2-(4-fluorophenyl)-N-{4-[5-methyl-4-oxo-3-phenyl-7-(2,2,2-trifluoroethyl)-4,5,6,7-tetrahydro-1H-pyrrolo[3,2-c]pyridin-2-yl]pyridin-2-yl}butanamide]	4.3	4.7
CC(C(=O)Nc1cc(-c2[nH]c3c(c2-c2ccc(F)cc2)C(=O)N(C)CC3CC(F)(F)F)ccn1)c1ccc(F)cc1 (stereo not drawn) [Example 21, 2-(4-fluorophenyl)-N-{4-[3-(4-fluorophenyl)-5-methyl-4-oxo-7-(2,2,2-trifluoroethyl)-4,5,6,7-tetrahydro-1H-pyrrolo[3,2-c]pyridin-2-yl]pyridin-2-yl}propanamide]	6.6	8.6
CN1CC(CC(F)(F)F)c2[nH]c(-c3ccnc(NC(=O)C(CC(F)F)c4ccc(F)cc4)c3)c(-c3ccc(F)cc3)c2C1=O (stereo not drawn) [Example 25, 4,4-difluoro-2-(4-fluorophenyl)-N-{4-[3-(4-fluorophenyl)-5-methyl-4-oxo-7-(2,2,2-trifluoroethyl)-4,5,6,7-tetrahydro-1H-pyrrolo[3,2-c]pyridin-2-yl]pyridin-2-yl}butanamide]	5	6.4
CC1CN(C)C(=O)c2c1[nH]c(-c1ccnc(NC(=O)C(C)c3ccc(F)cc3)c1)c2-c1ccc(F)cc1 (stereo not drawn) [Example 29, 2-(4-fluorophenyl)-N-{4-[3-(4-fluorophenyl)-5,7-dimethyl-4-oxo-4,5,6,7-tetrahydro-1H-pyrrolo[3,2-c]pyridin-2-yl]pyridin-2-yl}propanamide]	4.1	2.9
